# Measured values reported in patent publication US20110152246A1, “NOVEL INHIBITORS OF HEPATITIS C VIRUS REPLICATION” (InterMune, Inc., priority 2009, published 2011).
# Test system: Huh7 cells containing HCV replicons with an integrated luciferase reporter gene
# Assay: HCV Replicon Assay (luciferase reporter)
# Format: cell-based
# Settings: Hepatitis C virus, Huh-7; Huh7 HCV replicon cells, luciferase activity, approximately 48 hr incubation; read-out: EC50
# Procedure: Huh7 cells containing HCV replicons with an integrated luciferase reporter gene are maintained at 37° C. in 5% CO2 in Dulbecco's modified Eagle's medium (DMEM; Mediatech, Herndon, Va.) containing 10% heat-inactivated fetal bovine serum (FBS; Mediatech, Herndon, Va.), 2 mM L-glutamine (Cambrex Bioscience, Walkersville, Md.), 1% non essential amino acids (Lonza, Walkersville, Md.), 50 IU/mL penicillin (Mediatech, Herndon, Va.), […] streptomycin (Mediatech, Herndon, Va.) and 0.5 mg/mL G418 (Promega, Madison, Wis.). Cells are sub-divided 1:3 or 4 every 2-3 days.
# 24 h prior to the assay, Huh7 cells containing sub-genomic HCV replicons are collected, counted, and plated in Nunclon 96-well tissue culture plates (ThermoFisher, Rochester, N.Y.) at 5000 cells/well in […] standard maintenance medium (above) and incubated in the conditions above. To initiate the assay, culture medium is removed, and replaced with […] maintenance media lacking G418. Test compounds are serially diluted three-fold in dimethyl sulfoxide (DMSO) in two duplicate rows for each EC50 determination. These compound solutions are diluted ten-fold in DMEM lacking serum and G418. […] of these compound solutions in media are added to duplicate tissue culture plates. The final volume is 100 μL with a DMSO concentration of 1%. Compound concentrations are adjusted to appropriately define a dose response curve. Typical dilution series range from […] to 1.69 nM final concentrations to 1 nM to 16.9 fM final. Plates are incubated at 37° C. for approximately 48 hr.
# Following incubation, media is removed from one of the two duplicate plates and replicon-reporter luciferase activity is measured using a Bright-Glo luciferase assay kit (Promega, Madison, Wis.) according to manufacturer's instructions. Semi-log plots of luciferase activity versus the logarithm of compound concentration are fit to a 4-parameter logistic function using XLfit software (IDBS Inc., Guildford, UK) to determine EC50.
row,Compound,EC50 [nM]
1,COC(=O)N[C@H](C(=O)N1CCC[C@@]1(C)c1nc(-c2ccc(-c3ccc(-c4c[nH]c([C@]5(C)CCCN5C(=O)[C@@H](NC(=O)OC)C(C)C)n4)c4scnc34)cc2)c[nH]1)C(C)C [Compound 329],< 10
2,COC(=O)N[C@H](C(=O)N1CCC[C@H]1c1nc(-c2ccc(-c3ccc(-c4c[nH]c([C@@H]5CCCN5C(=O)[C@@H](NC(=O)OC)C(C)C)n4)c4[nH]cc(C)c34)cc2)c[nH]1)C(C)C [Compound 330],< 10
3,COC(=O)N[C@H](C(=O)N1CCC[C@H]1c1nc(-c2ccc3cc(-c4ccc5[nH]c([C@@H]6CCCN6C(=O)[C@@H](NC(=O)OC)C(C)C)nc5c4)ccc3c2)c[nH]1)C(C)C [Compound 402],< 10
4,COC(=O)N[C@H](C(=O)N1CCC[C@H]1C(=O)Nc1ccc(-c2nc3ccc(NC(=O)[C@@H]4CCCN4C(=O)[C@@H](NC(=O)OC)C(C)C)cc3s2)cc1)C(C)C [Compound 403],< 10
5,COC(=O)N[C@H](C(=O)N1CCCC[C@H]1c1nc(-c2ccc3cc(-c4ccc5[nH]c([C@@H]6CCCCN6C(=O)[C@@H](NC(=O)OC)C(C)C)nc5c4)ccc3c2)c[nH]1)C(C)C [Compound 418],< 10
6,COC(=O)N[C@H](C(=O)N1CCOC[C@H]1c1nc(-c2ccc3cc(-c4ccc5[nH]c([C@@H]6COCCN6C(=O)[C@@H](NC(=O)OC)C(C)C)nc5c4)ccc3c2)c[nH]1)C(C)C [Compound 419],< 10
7,CC(C)[C@H](Nc1ncccn1)C(=O)N1CCC[C@H]1c1nc(-c2ccc3cc(-c4ccc5[nH]c([C@@H]6CCCN6C(=O)[C@@H](Nc6ncccn6)C(C)C)nc5c4)ccc3c2)c[nH]1 [Compound 420],< 10
